Patent US20100227907A1, “Method of Treating Pain by Using Opioids and CAMKIV Inhibitors” (priority 2005, published 2010)

Assays:
mouse CaMKIV = test: siRNA knock-down of CaMKIV expression in cultured cortical neurons (western blot); format: cell-based; conditions: 30 nM siRNA, 48 h after transfection, n=3 experiments
Protocol: Cortical neurons were prepared from postnatal day 0 (P0) mice. All procedures were reviewed and approved by the Institutional Animal Care and Use Committee at University of Toronto, in accordance with the guidelines of the Canadian Council on Animal Care. The Cerebral cortexes were dissected, minced, and trypsinized for 15 min using 0.125% trypsin (Invitrogen, CA). Cells were seeded at the density of 4˜5×10^5 cells/cm^2 onto 60 mm dishes or 96-well plates precoated with 50 μg/ml poly-D-lysine (Sigma, Mo.) in water, and grown in Neurobasal-A medium (Invitrogen, CA) supplemented with B27 and GlutaMax (Invitrogen, CA). The cultures were incubated at 37° C. in 95% air, 5% carbon dioxide with 95% humidity.
sequence 1: sense 5′-[…]tt-3′, antisense 5′-[…]tt-3′ and sequence 2: sense 5′-[…]tt-3′, antisense 5′-[…]tt-3′, respectively (Ambion, Tex.). The annealed siRNA was reconstituted at the concentration of 100 μM for transfection. […] Cells were harvested and analyzed 48 h after transfection.
The cultured cortical neurons were harvested and homogenized in lysis buffer containing proteinase inhibitor cocktail (Sigma, Mo.). Protein was quantified by Bradford assay, and electrophoresis of equal amounts of total protein was performed on SDS-polyacrylamide gels. […] The density of immunoblots was measured using NIH ImageJ software.

[1] = tested on: substantia gelatiosa (SG) neurons in lamina II of the dorsal horn; test: Whole-cell patch clamp recording of sIPSCs in spinal cord slices; format: cell-based, mouse
Protocol: Postnatal mice (12-19 days old) were anesthetized with 1-2% halothane and the thoracic and lumbar spinal cord were dissected out and put into pre-equilibrated artificial cerebrospinal solution fluid (ACSF) at 1-4° C. The spinal cord was placed into the shallow groove of an agar block, and several drops of 20% gelatin were placed on the low-thoracic and high-lumbar segment to half-embed the spinal cord. The agar block, together with the half-embedded spinal cord, was glued on the stage of a vibratome with cyanoacrylate adhesive, and was immersed in the ice-cold ACSF. Then, transverse slices of the lumber spinal cord (350 μm) were prepared. Slices were transferred to a room temperature submerged recovery chamber with oxygenated (95% O2 and 5% CO2) solution containing (in mM): NaCl, 124; NaHCO3, 25; KCl, 4.4; KH2PO4, 1; CaCl2, 2; MgSO4, 2; glucose, 10. After one hr recovery, slices were placed in a recording chamber on the stage of an Axioskop 2FS microscope (Zeiss) equipped with infrared DIC optics for patch clamp recordings. Substantia gelatiosa (SG) could be identified as a translucent band capping the dorsal part of the gray matter under the microscope. Spontaneous inhibitory postsynaptic currents (sIPSCs) were recorded with an Axon 200B amplifier (Axon Instruments, CA). Recording electrodes (3-5 MΩ) contained a pipette solution composed of (in mM): Cs-gluconate, 120; NaCl, 5; MgCl2 1; EGTA, 0.5; Mg-ATP, 2; Na3GTP, 0.1; HEPES, 10; pH 7.2; 280-300 mOsmol. Access resistance was 15-30 MΩ and was monitored throughout the experiment. Data were discarded if access resistance changed more than 15% during an experiment. The membrane potential was held at […] throughout the experiment. A holding potential of +10 mV was used to record spontaneous inhibitory postsynaptic currents (sIPSCs).

[2] = tested on: pCREB expression in the spinal cord; test: pCREB expression in spinal cord after chronic morphine (western blot); format: in vivo, mouse; conditions: chronic morphine 10 mg/kg s.c. daily for seven days
Protocol: Open field locomotor activity was recorded for 1 hr after injection followed by determination of hot plate and tail flick response latencies.
Spinal cords were dounce-homogenized (18 strokes) in 10 volumes of 10 mM Tris-Cl (pH 7.4), 320 mM Sucrose, and 1% SDS. The tissue homogenates were centrifuged at 21,000×g at 4° C. for 5 min. Equal amounts of protein from tissue samples were separated by 4-12% gradient SDS-PAGE (Invitrogen), followed by Western blotting with anti-MOR-1 (1:1000), anti-pCREB (1:1000) (Santa Cruz Biotechnology) or anti-phosphoserine antibody (for immunoprecipitated samples, 1:1000) (Sigma) followed by revelation with ECL (Amersham). Membranes (BioTrace PVDF, Pall Co.) were routinely stripped and re-probed with a monoclonal antibody for actin (1:5000, Sigma) blotting to ensure equal protein loading.

[3] = tested on: pCREB in lamina I-II of the dorsal horn; test: pCREB immunostaining in spinal cord after chronic morphine; format: in vivo, mouse; conditions: chronic morphine vs saline; both CaMKIV KO and wild-type mice; p<0.001
Protocol: Spinal cord slices at the lumbar region were prepared using standard histological methods. Slices were incubated with rabbit anti-pCREB IgG (1:250) (Calbiochem) or rabbit anti-MOR IgG (1:500) (ImmunoStar Incorporated) at 4° C. overnight. Followed by donkey anti-rabbit IgG conjugated with Alexa 488 (1:500) (Molecular Probes) for one hour at room temperature. Measurements were made from at least three randomly selected non-contiguous sections in each mouse (3-4 mice per treatment group), observed from coded slides and averaged so that each animal has a mean value for regional immunoreactivity. The total number and density of positive cells were measured in dorsal horn layers I-II and ventral horn layers VI-IX. All data were expressed as a ratio between cell number or density and unit area. Images were obtained with an Olympus microscope. Data were analyzed with ImagePro software (Media-Cybrenetics,).

[4] = molecular target: T1, CaMKIV transiently expressed in HEK293 cells (Homo sapiens, UniProt Q16566); test: CREB luciferase reporter assay of CaMKIV activity in ionomycin-treated HEK293 cells transiently expressing CaMKIV; format: cell-based; conditions: 5 μM ionomycin, n=4 wells; for CREB activity, % of the control level: HEK293 expressing CaMKIV; for IC50: HEK293 transiently expressing CaMKIV, read-out: IC50 for inhibition of CaMKIV (CREB activity)
T1 construct: expressed in transfected cells; host or cells: HEK293
T1 sequence (Q16566 1-473): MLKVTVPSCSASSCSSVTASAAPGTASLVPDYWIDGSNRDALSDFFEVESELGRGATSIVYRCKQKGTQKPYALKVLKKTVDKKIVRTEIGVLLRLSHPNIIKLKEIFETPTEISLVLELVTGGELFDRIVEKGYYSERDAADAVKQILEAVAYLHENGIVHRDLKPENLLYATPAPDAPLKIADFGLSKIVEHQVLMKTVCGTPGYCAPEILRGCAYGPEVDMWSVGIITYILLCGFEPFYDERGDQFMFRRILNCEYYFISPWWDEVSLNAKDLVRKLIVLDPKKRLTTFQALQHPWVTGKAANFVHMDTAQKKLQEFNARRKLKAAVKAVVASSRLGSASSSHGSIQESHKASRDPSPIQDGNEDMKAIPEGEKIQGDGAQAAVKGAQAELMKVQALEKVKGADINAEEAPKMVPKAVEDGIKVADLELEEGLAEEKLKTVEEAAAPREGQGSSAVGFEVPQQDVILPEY
Protocol: (§1) HEK293 cells were seeded into 96-well plates. The next day, cells were cotransfected with the CaMKIV construct, pGL3-CRE-firefly luciferase and pGL3-CMV-Renilla luciferase constructs using Lipofectamine 2000 reagent (Invitrogen, CA) according to the manufacturer's recommendation. The following day, cells were treated with fresh medium containing DMSO as vehicle control or 5 μM ionomycin (Sigma, Mo.) in the presence or absence of KN62 or KN93 (Sigma, MO) at serial concentrations. Cells were harvested 16 h later. Luciferase activity was assayed with cell lysis by using the dual-luciferase reporter assay system (Promega, WI) according to the manufacturer's protocol.
(§2) The dose-dependent inhibitory effect of KN62 and KN93 on CaMKIV transiently expressed in HEK293 cells was determined. CaMKIV can activate CREB and stimulate CREB-mediated transcription through the direct phosphorylation of CREB on Ser-133. To measure the CaMKIV activity by CREB activity assay, the CaMKIV expression plasmids and a CREB luciferase reporter system were cotransfected into HEK293 cells in this study. The calcium ionophore ionomycin treatment can lead to an increase in intracellular Ca^2+ and Ca^2+/CaM levels, which influence CaMKIV activity in cells. Ionomycin (5 μM) can dramatically increase CREB activity in HEK293 cells expressing CaMKIV. The CREB activity is 5.5±0.2 times that of unstimulated cells (p<0.0001, compared to the unstimulated cells, n=4 wells, FIG. 8A).

[5] = tested on: CREB activity in HEK293 cells expressing CaMKIV; test: Ionomycin stimulation of CREB activity (luciferase reporter) in HEK293 cells expressing CaMKIV; format: cell-based; conditions: 5 μM ionomycin, n=4 wells, p<0.0001
Protocol: as §1
as §2, with “The CREB activity is 5.5±0.2 times that of unstimulated cells (p<0.0001, compared to the unstimulated cells, n=4 wells, FIG. 8A).” left out

Compound | CREB activity, % of the control level ([4]; 0.01 μM inhibitor) [%] | CREB activity, % of the control level ([4]; 0.1 μM inhibitor) [%] | CREB activity, % of the control level ([4]; 1.0 μM inhibitor) [%] | CREB activity, % of the control level ([4]; 10 μM inhibitor) [%] | CREB activity, % of the control level ([4]; 50 μM inhibitor) [%] | CREB activity, % of the control level ([4]; 100 μM inhibitor) [%] | IC50 [4] [nM] | also measured
sequence 1: siRNA for mouse CaMKIV: sense 5′-GCAUGAUAUGCACUAAUAGtt-3′, antisense 5′-CUAUUAGUGCAUAUCAUGCtt-3′ (sense GCAUGAUAUGCACUAAUAGTT; antisense CUAUUAGUGCAUAUCAUGCTT; chemistry not given here) | – | – | – | – | – | – | – | expression level of CaMKIV, % of the control (mouse CaMKIV): 50.6±5.9%
CN1CC[C@]23c4c5ccc(O)c4O[C@H]2[C@@H](O)C=C[C@H]3[C@H]1C5 [morphine] | – | – | – | – | – | – | – | decrease of the frequency of sIPSCs ([1]; acutely applied morphine, CaMKIV KO mice, n=6): 66.2±4.0%; decrease of the frequency of sIPSCs ([1]; acutely applied morphine, WT mice, n=7): 68.9±10.4%; decrease of the frequency of sIPSCs ([1]; slices pre-incubated in morphine at least 1 hour, CaMKIV KO mice, n=9): 55.7±6.9%; decrease of sIPSCs (in words) ([1]; slices pre-incubated in morphine at least 1 hour, WT mice, n=8, p>0.05): did not decrease; pCREB expression in spinal cord (western blot) ([2]; CaMKIV KO mice): absent; pCREB expression in spinal cord (western blot) ([2]; WT mice, p<0.001): significantly increased; pCREB in layer I and II of the dorsal horn (immunostaining) [3]: significantly increased
sequence 2: siRNA for mouse CaMKIV: sense 5′-CGGCUGACUACAUUUCAAGtt-3′, antisense 5′-CUUGAAAUGUAGUCAGCCGtt-3′ (sense CGGCUGACUACAUUUCAAGTT; antisense CUUGAAAUGUAGUCAGCCGTT; chemistry not given here) | – | – | – | – | – | – | – | knock down of the expression of CaMKIV (in words) (mouse CaMKIV): could not knock down
CN([C@@H](Cc1ccc(OS(=O)(=O)c2cccc3cnccc23)cc1)C(=O)N1CCN(c2ccccc2)CC1)S(=O)(=O)c1cccc2cnccc12 [KN62, 4-[(25)-2-[(5-isoquinolinylsulfonyl)methylamino]-3-oxo-3-(4-phrenyl-1-piperazinyl)propyl]phenyl isoquinolinesulfonic acid ester] | 98.4±0.8 | 85.3±1.2 | 55.5±2.5 | 11.5±2.6 | 1.3±2.9 | 1.2±1.4 | 1060 | –
C[C@H](CCC(=O)O)C[C@H](C)C[C@H](C)C(=O)/C=C(\O)[C@H](C)C[C@H](C)C/C=C/[C@@H](C)[C@@H](O)[C@@H](C)[C@@H](O)C[C@@H]1CC[C@@](C)([C@H]2CC[C@@](C)([C@@H](C)O)O2)O1 [Ionomycin, ionomycin] | – | – | – | – | – | – | – | CREB activity, times that of unstimulated cells [5]: 5.5±0.2 times
COc1ccc(S(=O)(=O)N(CCO)c2ccccc2CN(C)CC=Cc2ccc(Cl)cc2)cc1 [KN93, N-[2-[[[3-(4-Chlorophenyl)-2-propenyl]methylamino]methyl]phenyl]-N-(2-hydroxyethyl)-4-methoxybenzenesulphonamide] | 93.1±0.9 | 77.7±2.5 | 40.8±2.7 | 5.3±1.5 | 1.3±0.7 | 1.1±0.9 | 580 | –
